Consider 16 molecules from patent US10981906B2, “Substituted pyrrolopyridine JAK inhibitors and methods of making and using the same” (ACLARIS THERAPEUTICS, INC., priority 2017, dated 2021).

Counter-ions that a name gives are not always drawn. Like-named read-outs stand apart in the source and are kept apart here.

One assay addresses JAK1 (Homo sapiens (Human), UniProt P23458). The experiment in a line: JAK1 enzyme activity assay (Thermo Fisher SelectScreen Z-lyte). Type of assay: biochemical. The note with it: 1 hour kinase reaction, read-out: JAK1 Inhibition IC50. The procedure: The inhibitory potency of candidate compounds of JAK1 done at Thermo Fisher Scientific in their Selectscreen using a Z-lyte assay. The 2×JAK1/Tyr 06 mixture is prepared in 50 mM HEPES pH 6.5, 0.01% BRIJ-35, 10 mM MgCl2, 1 mM EGTA, 0.02% NaN3. The final 10 μL of the Kinase Reaction consists of 21.2-91.5 ng JAK1 and 2 μM Tyr 06 in 50 mM HEPES pH 7.0, 0.01% BRIJ-35, 10 mM MgCl2, 1 mM EGTA, 0.01% NaN3. After the 1 hour Kinase Reaction incubation, 5 μL of a 1:128 dilution of Development Reagent is added.
(§1) Background signal is defined in the absence of enzyme and uninhibited signal is defined in the presence of vehicle (2% DMSO) alone. Compounds were evaluated in an 11 point dose-response ranging from […] to 0.34 nM. IC50 values of compounds are determined using a 4 parameter logistical fit of emission ratio as a function of the concentration of compound.

The next assay has as its target JAK3 (a.a. 781-1124) (Homo sapiens (Human), UniProt P52333). The experiment in a line: JAK3 enzyme activity assay (SRCtide phosphorylation, Caliper). Type of assay: biochemical. Conditions: 2.5 nM JAK3, 1 μM SRCtide, 1 uM ATP, 40 minutes; read-out: JAK3 Inhibition IC50. How it is done: The activity of JAK3 (a.a. 781-1124, ThermoFisher) was quantified by measuring the phosphorylation of SRCtide (FAM-GEEPLYWSFPAKKK-NH2). Kinase reactions were run in a 384-well Greiner plate with 2% final DMSO concentration under the buffer conditions of 20 mM HEPES, pH 7.5, 10 mM MgCl2, 0.01% BSA, and 0.0005% Tween-20. The kinase reaction components were 2.5 nM JAK3, 1 μM SRCtide peptide and 1 uM ATP. Examples were tested in dose-response starting at 2 μM (11 concentrations, 3-fold serial dilution, duplicate reactions). The reactions were incubated at room temperature for 40 minutes, then stopped by adding a 1:1 volume of 30 mM EDTA in 20 mM HEPES, pH 7.5 (15 mM EDTA final). After the reaction was stopped, the phosphorylated and unphosphorylated peptides were separated and quantified using a Caliper LC3000/EZ-Reader system and HTS Well Analyzer Software (Caliper, A PerkinElmer Company, Hopkinton, Mass.). GraFit (Erithacus Software Ltd., Horley, U.K.) was used to calculate inhibitor potency by fitting dose-response data to the 4-parameter logistical IC50 equation.
as §1

For assay [1], the system named is IL-2 stimulated STAT5 phosphorylation on Tyr694 (JAK1/3). The experiment in a line: JAK1/3 cellular target modulation: IL-2 stimulated phospho-STAT5 in PBMC. Type of assay: cell-based. The note with it: IL-2 25 ng/ml, 1 hour compound preincubation, read-out: IL2-STAT5 Inhibition IC50. The source says: (§2) Target modulation was based upon the ability of a compound to inhibit JAK isoform specific phosphorylation of selected substrates. IL-2 stimulated STAT5 phosphorylation on Tyr694 was used to assess JAK1/3 compound selectivity. GM-CSF stimulated STAT5 phosphorylation on Tyr694 was used to assess JAK2 compound selectivity. IFNγ stimulated STAT1 phosphorylation on Tyr701 was used to assess JAK1/2 compound selectivity. For all three assays, human PBMC from frozen stocks were thawed, pelleted, resuspended in complete media (90% RPMI, 10% heat inactivated FBS, 10 mM HEPES, 47 μM 2-ME, pen/strep) and placed in wells of a 96 well V-bottom plate at 200,000 per well in 120 μl complete media. Compounds were added as 15 μl per well of 10× working stock solutions in complete media with 1% DMSO (or medium with 1% DMSO for controls) and placed on a plate shaker in a 37° C. incubator with 5% CO2 for 1 hour with gentle shaking (setting of 3). Stimulation used the addition of soluble cytokines. For the JAK1/3 phospho-STAT5 assay, 15 μl of 10× working stock recombinant human IL-2 was added to a final concentration of 25 ng/ml. For the JAK2 phospho-STAT5 assay, 15 μl of 10× working stock recombinant human GM-CSF was added to a final concentration of 5 ng/ml. For the JAK1/2 phospho-STAT1 assay, 15 μl of 10× working stock of recombinant human IFNγ was added to a final concentration of 10 ng/ml. Plates were then placed back on the plate shaker in the incubator for an additional 5, 5 and 10 minutes respectively upon which the plates were removed from the incubator, sealed with a plate sealer and the cells pelleted at 400×g for 5 minutes. After pelleting, the media was removed by aspiration and the cells were lysed in ELISA specific cell lysis buffer. The levels of phospho-STAT5 were determined using a Phospho (Tyr694)/Total STAT5a,b Whole Cell Lysate kit from Meso Scale Discovery. Levels of phospho-STAT1 were determined using a CST-PathScan Phospho-STAT1 (Tyr701) Sandwich ELISA kit.

The subject of assay [2] is IFNγ stimulated STAT1 phosphorylation on Tyr701 (JAK1/2). The experiment in a line: JAK1/2 cellular target modulation: IFNγ stimulated phospho-STAT1 in PBMC. The note with it: IFNγ 10 ng/ml, 1 hour compound preincubation, read-out: Infγ-STAT1 IC50. The assay is classed as cell-based.
Excerpt: as §2

JAK1, sequence (P23458 whole entry): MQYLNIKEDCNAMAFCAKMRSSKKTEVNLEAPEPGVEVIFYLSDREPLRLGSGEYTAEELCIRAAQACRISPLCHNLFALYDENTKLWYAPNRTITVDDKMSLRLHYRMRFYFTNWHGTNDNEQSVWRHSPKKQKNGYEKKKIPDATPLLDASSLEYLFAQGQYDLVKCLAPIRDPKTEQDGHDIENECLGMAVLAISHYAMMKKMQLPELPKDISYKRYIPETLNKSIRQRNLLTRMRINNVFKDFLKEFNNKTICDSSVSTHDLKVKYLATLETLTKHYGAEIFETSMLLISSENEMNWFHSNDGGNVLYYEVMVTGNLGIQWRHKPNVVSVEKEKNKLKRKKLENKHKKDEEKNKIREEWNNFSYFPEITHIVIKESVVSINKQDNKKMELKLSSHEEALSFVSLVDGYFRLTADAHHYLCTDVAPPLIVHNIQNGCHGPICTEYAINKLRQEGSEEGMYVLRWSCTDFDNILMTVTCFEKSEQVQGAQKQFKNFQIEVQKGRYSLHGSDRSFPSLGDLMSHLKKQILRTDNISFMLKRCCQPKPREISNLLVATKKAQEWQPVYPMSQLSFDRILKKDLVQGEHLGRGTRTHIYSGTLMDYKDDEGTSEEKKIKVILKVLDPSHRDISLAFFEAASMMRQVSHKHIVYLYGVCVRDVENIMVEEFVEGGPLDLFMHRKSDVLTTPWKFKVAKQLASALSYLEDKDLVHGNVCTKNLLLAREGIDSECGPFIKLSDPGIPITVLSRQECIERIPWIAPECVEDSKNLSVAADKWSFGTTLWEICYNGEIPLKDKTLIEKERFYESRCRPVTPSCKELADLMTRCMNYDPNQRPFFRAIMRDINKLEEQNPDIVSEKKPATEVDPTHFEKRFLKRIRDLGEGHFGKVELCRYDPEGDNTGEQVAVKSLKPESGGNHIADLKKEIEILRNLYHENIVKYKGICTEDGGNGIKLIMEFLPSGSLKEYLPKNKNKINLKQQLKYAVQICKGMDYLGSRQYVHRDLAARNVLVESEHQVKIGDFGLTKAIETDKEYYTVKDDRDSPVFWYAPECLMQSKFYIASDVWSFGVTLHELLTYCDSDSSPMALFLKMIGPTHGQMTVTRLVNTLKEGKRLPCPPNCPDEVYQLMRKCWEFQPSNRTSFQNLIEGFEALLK
JAK3 (a.a. 781-1124), sequence (P52333 781-1124): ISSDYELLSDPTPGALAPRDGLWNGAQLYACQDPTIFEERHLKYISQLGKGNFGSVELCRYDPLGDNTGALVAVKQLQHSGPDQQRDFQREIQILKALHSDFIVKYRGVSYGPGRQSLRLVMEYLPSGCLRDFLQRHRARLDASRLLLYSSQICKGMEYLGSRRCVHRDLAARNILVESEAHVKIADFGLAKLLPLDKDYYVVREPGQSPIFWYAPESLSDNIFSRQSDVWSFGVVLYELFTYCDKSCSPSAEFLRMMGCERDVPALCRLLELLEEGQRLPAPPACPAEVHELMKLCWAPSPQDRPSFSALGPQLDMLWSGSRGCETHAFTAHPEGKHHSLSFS

As a reminder, the IC50 is the concentration needed to halve the response being measured. With `CCOC(=O)c1cnc2[nH]ccc2c1N[C@H]1CC[C@H](OC(=O)CC#N)C1` (single isomer, unassigned) [Example 73, (trans)-ethyl 4-((3-(2-cyanoacetoxy)cyclopentyl)amino)-1H-pyrrolo [2,3-b]pyridine-5-carboxylate], the IC50 on JAK1 is no more than 0.01 µM; on JAK3 (a.a. 781-1124) it was 0.01 to 0.1 µM; in assay [1] (Homo sapiens, PBMC), no more than 0.1 µM; in assay [2] (human PBMC) it was no more than 0.1 µM.
In the case of `CCOC(=O)c1cnc2[nH]ccc2c1N[C@H]1CN(C(=O)C(C)C#N)CC[C@H]1C` (stereo partly drawn) [Example 127, ethyl 4-(((3R,4R)-1-(2-cyanopropanoyl)-4-methylpiperidin-3-yl)amino)-1H-pyrrolo[2,3-b]pyridine-5-carboxylate], the IC50 at JAK1 is no more than 0.01 µM; on JAK3 (a.a. 781-1124), 0.01 to 0.1 µM; in assay [1] (Homo sapiens, PBMC), no more than 0.1 µM; in assay [2] (Homo sapiens, PBMC) it was 0.1 to 1 µM.
On the same counts, the results for `COCCOC(=O)c1cnc2[nH]ccc2c1N[C@H]1CN(C(=O)CC#N)CC[C@H]1C` [Example 21, 2-methoxyethyl 4-(((3R,4R)-1-(2-cyanoacetyl)-4-methylpiperidin-3-yl)amino)-1H-pyrrolo[2,3-b]pyridine-5-carboxylate] are 0.01 to 0.1 µM, no more than 0.01 µM, 0.1 to 1 µM and greater than 1 µM.
For the molecule `CCOC(=O)c1cnc2[nH]ccc2c1N[C@@H]1CCCN(C(=O)CC#N)C1` [Example 117, ethyl (R)-4-((1-(2-cyanoacetyl)piperidin-3-yl)amino)-1H-pyrrolo[2,3-b]pyridine-5-carboxylate], the IC50 on JAK1 was no more than 0.01 µM; on JAK3 (a.a. 781-1124), no more than 0.01 µM; in assay [1] (Homo sapiens, PBMC) it was no more than 0.1 µM; in assay [2] (Homo sapiens, PBMC) it was no more than 0.1 µM.
As for `C=CC(=O)N1CCC[C@@H](Nc2c(C(=O)OCC)cnc3[nH]ccc23)C1` [Example 34, ethyl (R)-4-((1-acryloylpiperidin-3-yl)amino)-1H-pyrrolo[2,3-b]pyridine-5-carboxylate], the IC50 on JAK1 is 0.1 to 1 µM; on JAK3 (a.a. 781-1124) it was 0.1 to 1 µM; in assay [1] (Homo sapiens, PBMC), 0.1 to 1 µM; in assay [2] (Homo sapiens, PBMC) it was greater than 1 µM.
In the case of `CCOC(=O)c1cnc2[nH]ccc2c1N[C@H]1CN(C(=O)CC#N)CC[C@H]1C` [Example 3, ethyl 4-(((3R,4R)-1-(2-cyanoacetyl)-4-methylpiperidin-3-yl)amino)-1H-pyrrolo[2,3-b]pyridine-5-carboxylate], the IC50 is no more than 0.01 µM on JAK1; no more than 0.01 µM on JAK3 (a.a. 781-1124); no more than 0.1 µM in assay [1] (Homo sapiens, PBMC); 0.1 to 1 µM in assay [2] (Homo sapiens, PBMC).
As to `CCOC(=O)c1cnc2[nH]ccc2c1NC1CCC(CCC#N)C1` (mixture of isomers) [Example 153, Ethyl 4-((3-(2-cyanoethyl)cyclopentyl)amino)-1H-pyrrolo[2,3-b]pyridine-5-carboxylate as a mixture of 2 stereoisomers], the IC50 on JAK1 is no more than 0.01 µM; on JAK3 (a.a. 781-1124), no more than 0.01 µM; in assay [1] (Homo sapiens, PBMC), no more than 0.1 µM; in assay [2] (Homo sapiens, PBMC), 0.1 to 1 µM.
For the molecule `C[C@@H]1CCN(C(=O)CC#N)C[C@@H]1Nc1c(C(=O)OC(C)(C)C)cnc2[nH]ccc12` [Example 119, tert-butyl 4-(((3R,4R)-1-(2-cyanoacetyl)-4-methylpiperidin-3-yl)amino)-1H-pyrrolo[2,3-b]pyridine-5-carboxylate], the IC50 was 0.1 to 1 µM on JAK1; 0.1 to 1 µM at JAK3 (a.a. 781-1124); greater than 1 µM in assay [1] (Homo sapiens, PBMC).
As for `CCOC(=O)c1cnc2[nH]ccc2c1N(C)[C@@H]1CC[C@@H](O)C1` (single isomer, unassigned) [Example 68B, (trans)-Ethyl 4-((-3-hydroxycyclopentyl)(methyl)amino)-1H-pyrrolo[2,3-b]pyridine-5-carboxylate], the IC50 on JAK1 was 0.1 to 1 µM; at JAK3 (a.a. 781-1124), 0.01 to 0.1 µM; in assay [1] (Homo sapiens, PBMC), greater than 1 µM.
On the same counts, the results for `C[C@@H]1CCN(C(=O)CC#N)C[C@@H]1Nc1c(C(=O)O)cnc2[nH]ccc12` [Example 120, 4-(((3R,4R)-1-(2-cyanoacetyl)-4-methylpiperidin-3-yl)amino)-1H-pyrrolo[2,3-b]pyridine-5-carboxylic acid trifluoroacetic acid Salt] are 0.1 to 1 µM, 0.1 to 1 µM and greater than 1 µM.
For the molecule `CCOC(=O)c1cnc2[nH]ccc2c1N[C@@H]1CCCN(C(=O)[C@@H]2CC2(F)F)C1` [Example 156, ethyl 4-(((R)-1-((S)-2,2-difluorocyclopropane-1-carbonyl)piperidin-3-yl)amino)-1H-pyrrolo[2,3-b]pyridine-5-carboxylate], the IC50 on JAK3 (a.a. 781-1124) fell in the range of 0.01 to 0.1 µM; in assay [1] (Homo sapiens, PBMC), 0.1 to 1 µM.
For the molecule `CCOC(=O)c1cnc2[nH]ccc2c1N[C@H]1CCCN(C(=O)CC#N)C1` [Example 143, ethyl (S)-4-((1-(2-cyanoacetyl)piperidin-3-yl)amino)-1H-pyrrolo[2,3-b]pyridine-5-carboxylate], the IC50 at JAK1 was 0.1 to 1 µM; on JAK3 (a.a. 781-1124), 0.01 to 0.1 µM; in assay [1] (Homo sapiens, PBMC), greater than 1 µM.
With `N#CCC(=O)N1CCC[C@@H](Nc2c(C(=O)O)cnc3[nH]ccc23)C1` [Example 121, (R)-4-((1-(2-cyanoacetyl)piperidin-3-yl)amino)-1H-pyrrolo[2,3-b]pyridine-5-carboxylic acid trifluoroacetic acid Salt], the IC50 on JAK1 is 0.1 to 1 µM; on JAK3 (a.a. 781-1124), 0.1 to 1 µM; in assay [1] (Homo sapiens, PBMC), greater than 1 µM.
Consider `CCOC(=O)c1cnc2[nH]ccc2c1N(C)[C@H]1CC[C@H](OC(=O)CC#N)C1` (single isomer, unassigned) [Example 69, (trans)-ethyl 4-((3-(2-cyanoacetoxy)cyclopentyl)(methyl)amino)-1H-pyrrolo[2,3-b]pyridine-5-carboxylate], for which the IC50 at JAK1 is 0.1 to 1 µM; on JAK3 (a.a. 781-1124), 0.1 to 1 µM; in assay [1] (human PBMC) it was greater than 1 µM.
In the case of `CCOC(=O)c1cnc2[nH]ccc2c1N(C)[C@H]1CC[C@H](CS(=O)(=O)NC)CC1` [Example 94, ethyl 4-(methyl((1r,4r)-4-((N-methylsulfamoyl)methyl)cyclohexyl)amino)-1H-pyrrolo[2,3-b]pyridine-5-carboxylate], the IC50 at JAK3 (a.a. 781-1124) was 0.01 to 0.1 µM.
For `CCOC(=O)c1cnc2[nH]ccc2c1N(C)[C@H]1CC[C@H](O)C1` (single isomer, unassigned) [Example 68A, (trans)-Ethyl 4-((-3-hydroxycyclopentyl)(methyl)amino)-1H-pyrrolo[2,3-b] pyridine-5-carboxylate], the concentration for half-maximal inhibition (IC50) at JAK1 was 0.1 to 1 µM; on JAK3 (a.a. 781-1124), 0.1 to 1 µM; in assay [1] (Homo sapiens, PBMC), greater than 1 µM.
